PubChem BioAssay AID488844 (Broad Institute, 2010)
“And” between values parts separate entries of the source, which are not always exact repeats. Equal values may be shown once. The source made the active and inactive calls.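 How the source made its calls: active means compounds raising protection with a fitted AC50 no more than tenfold their highest valid tested dose; inconclusive means flat curve with partial protection, or unreliable curve fit; inactive means the rest.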

test system: not listed separately; assay: protection of INS-1E cells from cytokine death, dose response, ATP luminescence, dry powder (AID 488844); details: INS-1E cytokine-induced death rescue, ATP luminescence, 48 h; at 23.5 µM (top of the series)

With COc1ccc(S(=O)(=O)N(C)C[C@@H]2Oc3c(cccc3N(C)C)C(=O)N([C@@H](C)CO)C[C@H]2C)cc1 as the compound, how does the protection from cytokine death read?
Its protection from cytokine death is -5.24% (inactive).

Which protection from cytokine death does the source give for C[C@@H]1CN([C@@H](C)CO)C(=O)c2cccc(NC(=O)Nc3cccc4ccccc34)c2O[C@H]1CN(C)C(=O)Nc1ccc(C(F)(F)F)cc1 here?
Its protection from cytokine death is -33.2% (inactive).

Which protection from cytokine death does the source give for C[C@@H]1CN([C@@H](C)CO)C(=O)c2cccc(NC(=O)Nc3cccc4ccccc34)c2O[C@H]1CN(C)C(=O)Nc1ccccc1 here?
Its protection from cytokine death is -1.63% (inactive).

Which protection from cytokine death does the source give for COc1ccc(S(=O)(=O)N(C)C[C@@H]2Oc3c(NC(=O)C4CCOCC4)cccc3C(=O)N([C@@H](C)CO)C[C@H]2C)cc1 here?
The protection from cytokine death was 6.47% (inactive).

With COc1ccc(S(=O)(=O)N(C)C[C@@H]2Oc3c(NC(=O)C4CC4)cccc3C(=O)N([C@@H](C)CO)C[C@H]2C)cc1 as the compound, how does the protection from cytokine death read?
Its protection from cytokine death is 1.51% (inactive).

same assay, conditions: INS-1E cytokine-induced death rescue, ATP luminescence, 48 h; at 26 µM (top of the series)

Which protection from cytokine death does the source give for C[C@@H]1CN([C@@H](C)CO)C(=O)c2cccc(NC(=O)Nc3cccc4ccccc34)c2O[C@H]1CN(C)C(=O)NC1CCCCC1 here?
The protection from cytokine death was -35.9% (inactive).

Which protection from cytokine death does the source give for COc1ccc(NC(=O)Nc2cccc3c2O[C@@H](CN(C)S(=O)(=O)c2ccc(OC)cc2)[C@H](C)CN([C@@H](C)CO)C3=O)cc1 here?
Its protection from cytokine death is 13.4% (inactive).

Which protection from cytokine death does the source give for COc1ccc(S(=O)(=O)N(C)C[C@@H]2Oc3c(NS(=O)(=O)c4ccc(F)cc4)cccc3C(=O)N([C@@H](C)CO)C[C@H]2C)cc1 here?
Its protection from cytokine death is 8.48% (inactive).

With C[C@@H]1CN([C@@H](C)CO)C(=O)c2cccc(NC(=O)Nc3cccc4ccccc34)c2O[C@H]1CN(C)CC1CC1 as the compound, how does the protection from cytokine death read?
The protection from cytokine death was -29.1% (inactive).

Which protection from cytokine death does the source give for COc1ccc(S(=O)(=O)N(C)C[C@@H]2Oc3c(NC(=O)c4ccc(-c5nccs5)cc4)cccc3C(=O)N([C@@H](C)CO)C[C@H]2C)cc1 here?
Its protection from cytokine death is 12.6% (inactive).

For C[C@@H]1CN([C@@H](C)CO)C(=O)c2cccc(NS(=O)(=O)c3ccccc3)c2O[C@H]1CN(C)Cc1ccc(C(F)(F)F)cc1, which protection from cytokine death is on record?
The protection from cytokine death was -9.86% (inactive).

Which protection from cytokine death does the source give for C[C@@H]1CN([C@@H](C)CO)C(=O)c2cccc(NC(=O)Nc3cccc4ccccc34)c2O[C@H]1CN(C)S(=O)(=O)c1ccccc1F here?
The protection from cytokine death was -7.82% (inactive).

Which protection from cytokine death does the source give for COc1ccc(S(=O)(=O)N(C)C[C@@H]2Oc3c(NC(=O)c4ccncc4)cccc3C(=O)N([C@@H](C)CO)C[C@H]2C)cc1 here?
Its protection from cytokine death is 0.628% (inactive).

With C[C@@H]1CN([C@@H](C)CO)C(=O)c2cccc(NC(=O)Nc3cccc4ccccc34)c2O[C@H]1CN(C)S(=O)(=O)c1ccccc1 as the compound, how does the protection from cytokine death read?
Its protection from cytokine death is 16.5% (inactive).

Which protection from cytokine death does the source give for C[C@@H]1CN([C@@H](C)CO)C(=O)c2cccc(NC(=O)Nc3cccc4ccccc34)c2O[C@H]1CN(C)S(=O)(=O)c1ccc2c(n1)N(C)CCO2 here?
Its protection from cytokine death is 22.7% (inactive).

For C[C@@H]1CN([C@@H](C)CO)C(=O)c2cccc(NC(=O)Nc3cccc4ccccc34)c2O[C@H]1CN(C)S(=O)(=O)c1ccc(OC(F)(F)F)cc1, which protection from cytokine death is on record?
Its protection from cytokine death is -128% (inactive).

With COc1ccc(S(=O)(=O)N(C)C[C@@H]2Oc3c(NC(=O)c4nc5ccccc5s4)cccc3C(=O)N([C@@H](C)CO)C[C@H]2C)cc1 as the compound, how does the protection from cytokine death read?
The protection from cytokine death was -19.4% (inactive).

With COc1ccc(NC(=O)N(C)C[C@@H]2Oc3c(NC(=O)Nc4cccc5ccccc45)cccc3C(=O)N([C@@H](C)CO)C[C@H]2C)cc1 as the compound, how does the protection from cytokine death read?
Its protection from cytokine death is -28.7% (inactive).

Which protection from cytokine death does the source give for COc1ccc(S(=O)(=O)N(C)C[C@@H]2Oc3c(NS(=O)(=O)c4cn(C)cn4)cccc3C(=O)N([C@@H](C)CO)C[C@H]2C)cc1 here?
The protection from cytokine death was -12.2% (inactive).

With CNC[C@@H]1Oc2c(NC(=O)Nc3cccc4ccccc34)cccc2C(=O)N([C@@H](C)CO)C[C@H]1C as the compound, how does the protection from cytokine death read?
Its protection from cytokine death is -5.76% (inactive).

Which protection from cytokine death does the source give for COc1ccc(S(=O)(=O)N(C)C[C@@H]2Oc3c(NC(=O)Nc4c(C)noc4C)cccc3C(=O)N([C@@H](C)CO)C[C@H]2C)cc1 here?
Its protection from cytokine death is -2.07% (inactive).

With COc1ccc(S(=O)(=O)N(C)C[C@@H]2Oc3c(NC(=O)NC(C)C)cccc3C(=O)N([C@@H](C)CO)C[C@H]2C)cc1 as the compound, how does the protection from cytokine death read?
The protection from cytokine death was -1.33% (inactive).

Which protection from cytokine death does the source give for COc1ccc(S(=O)(=O)N(C)C[C@@H]2Oc3c(NS(C)(=O)=O)cccc3C(=O)N([C@@H](C)CO)C[C@H]2C)cc1 here?
Its protection from cytokine death is -4.24% (inactive).

Which protection from cytokine death does the source give for COc1ccc(S(=O)(=O)N(C)C[C@@H]2Oc3c(NC(=O)Nc4ccc(C(F)(F)F)cc4)cccc3C(=O)N([C@@H](C)CO)C[C@H]2C)cc1 here?
The protection from cytokine death was 7.51% (inactive).

Which protection from cytokine death does the source give for C[C@@H]1CN([C@@H](C)CO)C(=O)c2cccc(NC(=O)Nc3cccc4ccccc34)c2O[C@H]1CN(C)S(=O)(=O)c1ccc2c(c1)OCCCO2 here?
Its protection from cytokine death is 25.8% (inactive).

For COc1ccc(S(=O)(=O)N(C)C[C@@H]2Oc3c(NC(=O)NC4CCCCC4)cccc3C(=O)N([C@@H](C)CO)C[C@H]2C)cc1, which protection from cytokine death is on record?
The protection from cytokine death was 7.69% (inactive).

Which protection from cytokine death does the source give for COc1ccccc1S(=O)(=O)N(C)C[C@@H]1Oc2c(NC(=O)Nc3cccc4ccccc34)cccc2C(=O)N([C@@H](C)CO)C[C@H]1C here?
The protection from cytokine death was -1.88% (inactive).

For C[C@@H]1CN([C@@H](C)CO)C(=O)c2cccc(NC(=O)Nc3cccc4ccccc34)c2O[C@H]1CN(C)S(=O)(=O)c1cccc(F)c1, which protection from cytokine death is on record?
The protection from cytokine death was -13.6% (inactive).

Which protection from cytokine death does the source give for C[C@@H]1CN([C@@H](C)CO)C(=O)c2cccc(NC(=O)Nc3cccc4ccccc34)c2O[C@H]1CN(C)S(C)(=O)=O here?
Its protection from cytokine death is -4.98% (inactive).

For C[C@@H]1CN([C@@H](C)CO)C(=O)c2cccc(NC(=O)Nc3cccc4ccccc34)c2O[C@H]1CN(C)S(=O)(=O)c1cn(C)cn1, which protection from cytokine death is on record?
The protection from cytokine death was -7.7% (inactive).

With C[C@@H]1CN([C@@H](C)CO)C(=O)c2cccc(NC(=O)Nc3cccc4ccccc34)c2O[C@H]1CN(C)S(=O)(=O)c1cccs1 as the compound, how does the protection from cytokine death read?
The protection from cytokine death was -2.28% (inactive).

With COc1ccc(S(=O)(=O)N(C)C[C@@H]2Oc3c(NS(=O)(=O)c4ccccc4)cccc3C(=O)N([C@@H](C)CO)C[C@H]2C)cc1 as the compound, how does the protection from cytokine death read?
The protection from cytokine death was 4.09% (inactive).

With COc1ccc(S(=O)(=O)N(C)C[C@@H]2Oc3c(NC(=O)c4cccc5ccccc45)cccc3C(=O)N([C@@H](C)CO)C[C@H]2C)cc1 as the compound, how does the protection from cytokine death read?
Its protection from cytokine death is 1.13% (inactive).

Which protection from cytokine death does the source give for COc1ccc(S(=O)(=O)N(C)C[C@@H]2Oc3c(NC(=O)c4cnccn4)cccc3C(=O)N([C@@H](C)CO)C[C@H]2C)cc1 here?
Its protection from cytokine death is 6.69% (inactive).

For Cc1noc(C)c1NC(=O)N(C)C[C@@H]1Oc2c(NC(=O)Nc3cccc4ccccc34)cccc2C(=O)N([C@@H](C)CO)C[C@H]1C, which protection from cytokine death is on record?
The protection from cytokine death was -14.9% (inactive).

With COc1ccc(S(=O)(=O)N(C)C[C@@H]2Oc3ccc(NC(=O)Nc4cccc5ccccc45)cc3C(=O)N([C@@H](C)CO)C[C@H]2C)cc1 as the compound, how does the protection from cytokine death read?
The protection from cytokine death was -13.2% (inactive).

With COc1ccc(S(=O)(=O)N(C)C[C@@H]2Oc3c(NC(=O)Nc4ccc5c(c4)OCO5)cccc3C(=O)N([C@@H](C)CO)C[C@H]2C)cc1 as the compound, how does the protection from cytokine death read?
The protection from cytokine death was 9.8% (inactive).

With COc1ccc(S(=O)(=O)N(C)C[C@@H]2Oc3c(NC(=O)Nc4cccc5ccccc45)cccc3C(=O)N([C@H](C)CO)C[C@@H]2C)cc1 as the compound, how does the protection from cytokine death read?
The protection from cytokine death was 13.8% (inactive).

Which protection from cytokine death does the source give for C[C@@H]1CN([C@@H](C)CO)C(=O)c2cccc(NC(=O)Nc3cccc4ccccc34)c2O[C@H]1CN(C)C(=O)Nc1ccc(F)cc1 here?
Its protection from cytokine death is -27.4% (inactive).

Which protection from cytokine death does the source give for COc1ccc(S(=O)(=O)N(C)C[C@@H]2Oc3c(NC(=O)Nc4cccc5ccccc45)cccc3C(=O)N([C@@H](C)CO)C[C@H]2C)cc1OC here?
Its protection from cytokine death is 34.5% (inactive).

Which protection from cytokine death does the source give for COc1ccc(S(=O)(=O)Nc2cccc3c2O[C@@H](CN(C)S(=O)(=O)c2ccc(OC)cc2)[C@H](C)CN([C@@H](C)CO)C3=O)cc1 here?
The protection from cytokine death was -0.665% (inactive).

For COc1ccc(S(=O)(=O)N(C)C[C@@H]2Oc3c(NC(=O)C4CCCCC4)cccc3C(=O)N([C@@H](C)CO)C[C@H]2C)cc1, which protection from cytokine death is on record?
Its protection from cytokine death is -8.99% (inactive).

For C[C@@H]1CN([C@@H](C)CO)C(=O)c2cccc(NC(=O)Nc3cccc4ccccc34)c2O[C@H]1CN(C)S(=O)(=O)c1ccc2c(c1)oc(=O)n2C, which protection from cytokine death is on record?
Its protection from cytokine death is 4.91% (inactive).

With C[C@H]1CN([C@@H](C)CO)C(=O)c2cccc(NC(=O)NC3CCCCC3)c2O[C@@H]1CN(C)S(C)(=O)=O as the compound, how does the protection from cytokine death read?
Its protection from cytokine death is -7.31% (inactive).

With Cc1ccc(S(=O)(=O)N(C)C[C@H]2Oc3c(NC(=O)Nc4cccc5ccccc45)cccc3C(=O)N([C@@H](C)CO)C[C@@H]2C)cc1 as the compound, how does the protection from cytokine death read?
Its protection from cytokine death is -9.39% (inactive).

Which protection from cytokine death does the source give for N#Cc1ccc2cc(Br)c(C(F)(F)P(=O)(O)O)cc2c1 here?
Its protection from cytokine death is -34.9% (inactive).

Which protection from cytokine death does the source give for C[C@@H]1CN([C@@H](C)CO)C(=O)c2cccc(NC(=O)Nc3cccc4ccccc34)c2O[C@H]1CN(C)C(=O)Nc1ccc2c(c1)OCO2 here?
The protection from cytokine death was -28.7% (inactive).

test system: INS-1E cytokine-induced death rescue, ATP luminescence, 48 h; assay: as above; details: not given

Which AC50 does the source give for Cc1ccc(S(=O)(=O)N(C)C[C@@H]2Oc3c(NC(=O)Nc4cccc5ccccc45)cccc3C(=O)N([C@H](C)CO)C[C@H]2C)cc1 here?
Its AC50 is > 23.5 µM (inactive).

For C[C@@H]1CN([C@@H](C)CO)C(=O)c2cccc(NC(=O)Nc3cccc4ccccc34)c2O[C@H]1CN(C)S(=O)(=O)c1ccc2c(c1)OCCO2, which AC50 is on record?
The AC50 was 1.62 µM and 4.81 µM.

For COc1ccc(S(=O)(=O)N(C)C[C@@H]2Oc3c(NC(=O)Nc4ccccc4)cccc3C(=O)N([C@@H](C)CO)C[C@H]2C)cc1, which AC50 is on record?
Its AC50 is > 26 µM (inactive).
